Results on one compound are retold here after US20250186485A1, “HYDRATION COMPOSITIONS” (priority 2017, published 2025).

Like-named read-outs stand apart in the source and are kept apart here.

Test [1] relates to patient with intermittent claudication of the lower extremities and abdominal angina. The settings on record: Case 1.
Procedure: A person complaining of 10 step intermittent claudication of the lower extremities, abdominal angina that produced a 15 Kg weight loss, and an abnormal renal function with a creatinine of 3.1 mg per deciliter.
The patient was having intermittent claudication for years but in the last four months it became disabling.
On physical exam patient had no palpable pulses.
The patient was admitted, stool cultures performed and patient was rehydrated with precaution considering their heart condition. […] After four days the patient was discharged and asked to drink 2.5 liters of fluids a day.
For test [2], the system named is patients with disabling intermittent claudication or rest pain of the lower extremities. The text has this: (§1) Dehydration often occurs in elderly population. Incidence of peripheral artery disease in patients over 60 years of age ranges between 18 and 29%. It was hypothesized that dehydration aggravates symptoms of PAD. Patients with disabling claudication or rest pain resistant to standard medical therapy were instructed to drink between 2,500 to 3000 milliliters of water according to their body mass.
(§2) Patients without a past history of Congestive Heart Failure or renal insufficiency were included in the following example without interrupting exercises they were performing or medication they were receiving. Ninety percent of the patients were receiving aspirin and 100% of them Statins and Cilostazol at least for 5 months before starting the protocol. (See Table 2 below.)
(§3) All patients belonged to category IIb of Fontaine and grade 1 category 2 and 3 of Rutherford.
(§4) Protocol: Complete physical examination and laboratory work were performed. Ankle-brachial pressures were recorded. • 1) Graphics of skin temperature were obtained in both feet using a Flir Thermal Camera (Flir Systems Inc.) in a room at 24 degrees Celsius. (See FIGS. 3 and 4) • 2) Time and distance to claudication using a treadmill at 3 miles per hour was recorded. • 3) Subjective classification of pain intensity from […] was documented. (0=no pain, 10=intense pain) • 4) Skin color-including the absence and/or reduction in abnormal variations in skin color, skin tone and skin elasticity.
(§5) Duplex of the abdominal artery, iliac arteries and infra-inguinal vessels was performed in every patient. Patients were followed weekly and underwent regular blood tests. Patients were recommended to drink 3,000 milliliters of water a day; fluids like tea and milk were counted in addition to water. This recommendation was the part of the protocol and it was carefully controlled.
Statistical analysis: software utilized: SPSS 20 Qualitative variables were expressed in percentages. Quantitative variables were analyzed with the test of Shapiro-Wilk. Continuous variables were expressed as median, 95% confidence intervals and interquartile intervals. Wilcoxon Signed Rank Test was also utilized P<0.05 was considered significant.

Test [3] deals with patient with right foot rest pain and disabling claudication. The note with it: Case 2; for walking distance without pain: three liters of fluid a day. The source says:
A patient came to the consult with right foot rest pain, pallor and coldness up to the knee. […] Rest pain started one week before the consult and their claudication became disabling one month before. The patient was drinking less than 700 milliliters a day of fluids. […] Before proceeding to amputation, proper hydration was achieved. […] Three liters of fluid a day was recommended and the patient was discharged.

Test [4] deals with patients with disabling intermittent claudication or rest pain of the lower extremities.
Text: as §1, §2, §3, §4, §5
The source holds these as a separate data set.

Take `O` [water]: the “walking distance without pain” value in test [1] (14 months after last admission, 2.5 liters of fluids a day) is recorded as “more than 4 blocks”; in test [1] (after rehydration in hospital, second day) it was 50 meters; in test [3] (after seven months) it was “walked four kilometers without pain”; in test [3] (after three months), “walked three blocks without pain”. Also, in test [2] (0=no pain, 10=intense pain, CI 1 to 2.341, initial median 6 (6 to 8), p<0,0001), the “pain intensity (final) Median” value was found to be 2. Moreover, the “final Median dorsal temperature of the first right toe after treatment” value in test [2] (FIG. 5, median, 95% confidence interval 29.300 to 31.468, initial median 29.95 (28 to 31)) was determined as 30.65. The “final Median plantar temperature of the first right toe after treatment” value in test [2] (FIG. 6, median, CI 28.464 to 30.302, initial median 28.50 (27.366 to 29.939), p:0.0347) worked out at 29.25. In addition, the “Median temperature of the plantar aspect of the left foot after hydration” value in test [2] (after 6 weeks of hydration, before 28.40 (26.82-30), p: 0.030) is 29.20 (26.70-30.92) ° C. In addition, the “Median temperature of the plantar aspect of the right foot after 6 weeks” value in test [2] (after 6 weeks of hydration, before 28.70 (27-31), p: 0.011) is 29 (27.70-31) ° C. Also, the “Median temperature of the dorsum of the left foot after 6 weeks” value in test [2] (after 6 weeks of hydration, before 29.40 (27.72-31.30), p: 0.009) was 30.20 (27.70-31.70) ° C. For the same compound, the “Median temperature of the dorsum of the right foot after hydration” value in test [2] (after 6 weeks of hydration, before protocol 29.95 (27.60-31.15), p: 0.02) is 30.35 (28.12-31.60) ° C. The “Decrease of pain sensation recorded, percentage of patients” value in test [2] (after treatment) is given as 91.7 % of patients. Further, in test [2] (after treatment), the “Patients with improvement of pain sensation of more than 50%” value is 80 % of the patients. Moreover, the “Median ankle/brachial index after 6 weeks of treatment” value in test [2] (initial median 0.6 (0.50 to 0.69), p<0,0001) is 0.75 (0.62 to 0.80). Further, the “Final pain intensity sensation, patient 15” value in test [2] (single patient 15, final intake of water 3000 ml, initial 6) stood at 0. For the same compound, the “Distance to claudication (final), patient 15” value in test [2] (single patient 15, final intake of water 3000 ml, initial 300 mts) came to 6000 mts. For the same compound, the “Final ankle/brachial index, patient 15” value in test [2] (single patient 15, final intake of water 3000 ml, initial index 0.77) was found to be 0.83. Further, in test [2] (treadmill 3 miles per hour, end of 6 weeks, CI 382.947 to 800, initial median 100 (50 to 200), p<0.0001), the “distance to claudication, final Median” value is 535. Also, in test [2] (treadmill, 95% CI 4.195 to 9.209, initial median 1.3 (0.7 to 2.500), p<0.0001), the “Time to claudication after hydration, Median” value was determined as 6.3 min. In addition, the “rest pain of the right foot” value in test [3] (two days after proper hydration was achieved) is “pain subsided”. The “status related to lower extremity ischemia” value in test [4] (35 patients in whom proper hydration was achieved) was “all of them improved”. Besides, the “ulcers in the toes and ankle” value in test [4] (anecdotal, drinking 3 liters of water a day) is listed as “reversed the lesions”. Also, the “Time and distance to claudication, cutaneous temperature, ankle-brachial pressure and subjective pain sensation” value in test [4] (patients who drank more than 2.5 liters of fluids a day (35 of the 36 patients)) was “improved significantly”.
